Measurements from US20210220384A1, “ORAL ADMINISTRABLE PHARMACEUTICAL COMPOSITION” (TAIHO PHARMACEUTICAL CO., LTD., priority 2012, published 2021).

Test: Critical relative humidity of additives by moisture sorption analyzer (Test Example 1)
Type: physicochemical
Conditions: of the additive (excipient) alone, moisture sorption analyzer DVS-1
Experimental: The orally administrable pharmaceutical composition of the present invention, to which sugars having a critical relative humidity of 85% or more at 25° C. as an excipient is added, suppresses increases in FTD and TPI related substances even stored under high-humidity conditions. A “critical relative humidity” herein means a well-known indicator representing the hygroscopicity, and refers to a relative humidity when a rapid increase in the amount of moisture absorbed in a sample is observed in the case where the relative humidity is increased. The critical relative humidity can be checked by measuring the change in the weight of a sample at 25° C. and a relative humidity of from 10 to 95% using, for example, a moisture sorption analyzer (DVS-1, Surface Measurement Systems Ltd.). “A critical relative humidity at 25° C. is 85% or more” means that moisture is not substantially absorbed when the relative humidity at 25° C. is less than 85%. Also, “no critical relative humidity” means that moisture is absorbed at a low humidity depending on the humidity, and a rapid increase in the amount of moisture absorbed associated with an increase in the relative humidity is not observed.
The critical relative humidity of additives at 25° C. shown in Tables 1 and 2 was measured using a moisture sorption analyzer (DVS-1, Surface Measurement Systems Ltd.).

| Critical relative humidity (%, at 25° C.) | SMILES |
| --- | --- |
| 50-60% | OC[C@@H](O)[C@@H](O)[C@H](O)[C@@H](O)CO [D-sorbitol] |
| 95 or more % | OC[C@@H](O)[C@@H](O)[C@H](O)[C@H](O)CO [D-mannitol] |
| 75-85% | OC[C@@H](O)[C@H](O)[C@@H](O)CO [Xylitol, xylitol] |

Further lines, the molecule ahead of its results:

| SMILES | Critical relative humidity (%, at 25° C.) |
| --- | --- |
| O.OC[C@H]1O[C@@H](O[C@H]2[C@H](O)[C@@H](O)C(O)O[C@@H]2CO)[C@H](O)[C@@H](O)[C@H]1O (some centres unmarked) [Lactose hydrate, lactose hydrate] | 95 or more % |
| OC[C@H]1O[C@@](CO)(O[C@H]2O[C@H](CO)[C@@H](O)[C@H](O)[C@H]2O)[C@@H](O)[C@@H]1O [Sucrose, sucrose] | 85 or more % |
